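A five-concentration, 48-hour dose response in 96-well plates underlies each endpoint, interpolated linearly between surrounding concentrations. The concentration for 50% growth inhibition is given as GI50.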 Activity calls are given as the source filed them. Cut-off read from the data, not from the text of the source: active = GI50 up to about 1.1 µM and inactive = higher.
Columns and labels:
Assay in all cases: NCI anticancer screen, dose series, 48 h
CAKI-1 = test system: CAKI-1
CCRF-CEM = test system: CCRF-CEM
EKVX = test system: EKVX
HCC 2998 = test system: HCC 2998
HCT-116 = test system: HCT-116
HCT-15 = test system: HCT-15
HL-60 = test system: HL-60
HOP-92 = test system: HOP-92
HT-29 = test system: HT-29
Malme-3M = test system: Malme-3M
NCI-H522 = test system: NCI-H522
OVCAR-4 = test system: OVCAR-4
SF-295 = test system: SF-295
SF-539 = test system: SF-539
SK-OV-3 = test system: SK-OV-3
SN12C = test system: SN12C
SW-620 = test system: SW-620
UO-31 = test system: UO-31
DU-145 = test system: DU-145
T47D = test system: T47D

| Compound | GI50 (CAKI-1) | GI50 (CCRF-CEM) | GI50 (EKVX) | GI50 (HCC 2998) | GI50 (HCT-116) | GI50 (HCT-15) [µM] | GI50 (HL-60) | GI50 (HOP-92) | GI50 (HT-29) | GI50 (Malme-3M) | GI50 (NCI-H522) | GI50 (OVCAR-4) | GI50 (SF-295) | GI50 (SF-539) | GI50 (SK-OV-3) | GI50 (SN12C) | GI50 (SW-620) | GI50 (UO-31) | GI50 (DU-145) | GI50 (T47D) |
| --- | --- | --- | --- | --- | --- | --- | --- | --- | --- | --- | --- | --- | --- | --- | --- | --- | --- | --- | --- | --- |
| CNC(=O)OCc1c2ccncc2c(C)c2c1[nH]c1ccc(OC)cc12 | 0.968 µM (active) | 0.176 µM (active) | 2.21 µM (inactive) | 0.29 µM (active) | 0.156 µM (active) | 0.495 | 0.204 µM (active) | 0.187 µM (active) | 0.33 µM (active) | 0.353 µM (active) | 0.0805 µM (active) | 0.256 µM (active) | 0.352 µM (active) | 0.154 µM (active) | 0.212 µM (active) | 0.678 µM (active) | 0.164 µM (active) | 0.148 µM (active) | – | – |
| Nn1c(CCCCCCCCc2nnc(COc3ccc(Cl)cc3Cl)n2N)nnc1COc1ccc(Cl)cc1Cl | 41.9 µM (inactive) | – | 38.3 µM (inactive) | 56.6 µM (inactive) | 16.7 µM (inactive) | 37.7 | – | 28.4 µM (inactive) | 29.1 µM (inactive) | 6.71 µM (inactive) | 17.3 µM (inactive) | 46.5 µM (inactive) | > 10 µM (inactive) | – | > 10 µM (inactive) | 22.2 µM (inactive) | > 100 µM (inactive) | 47.1 µM (inactive) | 42.9 µM (inactive) | – |
| O=C(O)CNS(=O)(=O)c1ccc(NC(=O)c2cccc([N+](=O)[O-])c2)cc1 | > 100 µM (inactive) | > 100 µM (inactive) | > 100 µM (inactive) | > 100 µM (inactive) | – | > 100 | > 100 µM (inactive) | > 100 µM (inactive) | > 100 µM (inactive) | > 100 µM (inactive) | > 100 µM (inactive) | > 100 µM (inactive) | > 100 µM (inactive) | > 100 µM (inactive) | > 100 µM (inactive) | > 100 µM (inactive) | > 100 µM (inactive) | > 100 µM (inactive) | – | – |
| C/C=C\C(CC(=O)O)CN1CCC2=C(C1)C(S(=O)(=O)C(F)(F)F)c1ccccc12 (centres undefined) | > 100 µM (inactive) | > 10 µM (inactive) | > 100 µM (inactive) | > 100 µM (inactive) | > 100 µM (inactive) | > 100 | – | > 100 µM (inactive) | > 100 µM (inactive) | > 100 µM (inactive) | > 100 µM (inactive) | > 100 µM (inactive) | > 100 µM (inactive) | – | > 100 µM (inactive) | – | > 100 µM (inactive) | > 100 µM (inactive) | > 100 µM (inactive) | – |
| Nc1nc(N)c2nc(CNc3ccc(C(=O)NC(CCNC(=O)c4ccccc4C(=O)O)C(=O)O)cc3)cnc2n1 (centres undefined) | 0.01 µM (active) | 0.01 µM (active) | > 100 µM (inactive) | – | 0.00502 µM (active) | 0.01 | – | 0.0698 µM (active) | 0.01 µM (active) | > 36.2 µM (inactive) | 0.0897 µM (active) | > 100 µM (inactive) | 0.0718 µM (active) | < 0.0256 µM (active) | > 100 µM (inactive) | 0.01 µM (active) | 0.01 µM (active) | 0.00802 µM (active) | 0.0339 µM (active) | – |
| CCOC(=O)N(Cc1cccs1)c1cc(OC)c(OC)c(OC)c1 | 56.5 µM (inactive) | 41 µM (inactive) | > 100 µM (inactive) | > 100 µM (inactive) | > 100 µM (inactive) | 62.4 | 34.8 µM (inactive) | – | 70.1 µM (inactive) | > 100 µM (inactive) | 32.6 µM (inactive) | 32.1 µM (inactive) | > 100 µM (inactive) | – | – | > 100 µM (inactive) | > 100 µM (inactive) | 38.4 µM (inactive) | > 100 µM (inactive) | 54.1 µM (inactive) |
| Cc1ccc(-n2cc(-c3ccc(Cl)cc3)c3c2N=CN2N=C(c4ccco4)NC32)cc1 (centres undefined) | 10.1 µM (inactive) | 21 µM (inactive) | 17.7 µM (inactive) | > 100 µM (inactive) | 7.05 µM (inactive) | > 100 | > 100 µM (inactive) | 2.09 µM (inactive) | > 100 µM (inactive) | 31.3 µM (inactive) | 15.8 µM (inactive) | 1.93 µM (inactive) | 6.11 µM (inactive) | 15.2 µM (inactive) | 4.13 µM (inactive) | 3.62 µM (inactive) | 8.87 µM (inactive) | 5.05 µM (inactive) | > 100 µM (inactive) | – |
| C=C(CCCCC)CN1CCCC1[C@@](C)(O)CC(=O)OCC (some centres undefined) | > 100 µM (inactive) | > 100 µM (inactive) | > 100 µM (inactive) | > 100 µM (inactive) | > 100 µM (inactive) | > 100 | 28.6 µM (inactive) | > 100 µM (inactive) | > 100 µM (inactive) | > 100 µM (inactive) | > 100 µM (inactive) | > 100 µM (inactive) | > 100 µM (inactive) | > 100 µM (inactive) | > 100 µM (inactive) | > 100 µM (inactive) | > 100 µM (inactive) | > 100 µM (inactive) | – | – |
| O=C(OCCOCCOC(=O)c1c[nH]cc1-c1ccccc1)c1c[nH]cc1-c1ccccc1 | 26.5 µM (inactive) | 23 µM (inactive) | 26.7 µM (inactive) | 21.9 µM (inactive) | 16 µM (inactive) | 19.2 | 17.9 µM (inactive) | 20.3 µM (inactive) | 18.8 µM (inactive) | 18.9 µM (inactive) | 15.3 µM (inactive) | 18.3 µM (inactive) | 18.4 µM (inactive) | 17.9 µM (inactive) | 35.1 µM (inactive) | 18.1 µM (inactive) | 28.4 µM (inactive) | 14.1 µM (inactive) | – | – |
| C=C1C(C)C2C(Cc3ccccc3)NC(=O)C23OC(=O)/C=C\CC(=O)CCC(C)C/C=C/C3C1O (centres undefined) | 0.421 µM (active) | – | 2.48 µM (inactive) | 6.19 µM (inactive) | 2.54 µM (inactive) | 1.28 | – | 0.581 µM (active) | 1.54 µM (inactive) | 1.82 µM (inactive) | 0.859 µM (active) | 2.31 µM (inactive) | 2.54 µM (inactive) | – | 6.05 µM (inactive) | 1.93 µM (inactive) | 1.36 µM (inactive) | 0.512 µM (active) | – | 0.635 µM (active) |
| COc1cc2c[n+](C)c3c4ccccc4ccc3c2cc1OC | 55.3 µM (inactive) | 6.5 µM (inactive) | 2.54 µM (inactive) | 4.81 µM (inactive) | 3.95 µM (inactive) | > 100 | – | – | 5.4 µM (inactive) | 1.55 µM (inactive) | 0.302 µM (active) | 9.4 µM (inactive) | 16.9 µM (inactive) | 6.17 µM (inactive) | 6.08 µM (inactive) | 1.32 µM (inactive) | 1.95 µM (inactive) | > 75.5 µM (inactive) | 3.8 µM (inactive) | 2.06 µM (inactive) |
| CCN(CC)c1nc(N(C)C)c2cc(OC)ccc2n1 | 44.6 µM (inactive) | – | 25.1 µM (inactive) | 18.5 µM (inactive) | 11.2 µM (inactive) | 30.6 | 16.6 µM (inactive) | 24.2 µM (inactive) | 10.2 µM (inactive) | 20.3 µM (inactive) | 14.6 µM (inactive) | 43.6 µM (inactive) | 26.7 µM (inactive) | 21.3 µM (inactive) | – | 22.2 µM (inactive) | 24 µM (inactive) | 19.3 µM (inactive) | 42.2 µM (inactive) | – |
| CC(=O)Oc1ccccc1-c1cc2ccccc2oc1=O | – | > 100 µM (inactive) | 63.5 µM (inactive) | > 100 µM (inactive) | > 100 µM (inactive) | > 100 | > 100 µM (inactive) | – | > 100 µM (inactive) | > 100 µM (inactive) | 61.1 µM (inactive) | – | 91.2 µM (inactive) | > 100 µM (inactive) | – | > 100 µM (inactive) | > 100 µM (inactive) | 46.8 µM (inactive) | > 100 µM (inactive) | 97.7 µM (inactive) |
| Cn1ncc2[nH]cnc2c1=S | > 100 µM (inactive) | 19.8 µM (inactive) | > 100 µM (inactive) | – | > 100 µM (inactive) | > 100 | 0.541 µM (active) | – | 57.7 µM (inactive) | – | – | – | > 100 µM (inactive) | > 100 µM (inactive) | – | > 100 µM (inactive) | > 100 µM (inactive) | > 100 µM (inactive) | > 100 µM (inactive) | > 100 µM (inactive) |
| C1C[N+]23CCC[N+]2(C1)CCC3 (centres undefined) | > 100 µM (inactive) | 31.6 µM (inactive) | > 100 µM (inactive) | > 100 µM (inactive) | > 100 µM (inactive) | > 100 | 31.1 µM (inactive) | > 100 µM (inactive) | > 100 µM (inactive) | > 100 µM (inactive) | > 100 µM (inactive) | > 100 µM (inactive) | > 100 µM (inactive) | > 100 µM (inactive) | > 100 µM (inactive) | > 100 µM (inactive) | > 100 µM (inactive) | 99.8 µM (inactive) | – | – |
| Nc1ccc(C(=O)Nc2ccccc2N)cc1 [DINALINE] | 42.8 µM (inactive) | 11.4 µM (inactive) | 66.2 µM (inactive) | 17.5 µM (inactive) | 14.2 µM (inactive) | 54 | 3.37 µM (inactive) | 37.9 µM (inactive) | 25.9 µM (inactive) | 5.92 µM (inactive) | 11.1 µM (inactive) | 20.2 µM (inactive) | 26.1 µM (inactive) | 30.4 µM (inactive) | > 100 µM (inactive) | 60 µM (inactive) | 19.2 µM (inactive) | 42.6 µM (inactive) | 41.7 µM (inactive) | – |

Source: ChEMBL document CHEMBL1201862, “PubChem BioAssay data set” (2004)
